Assays:
[1] = test system: TEAD response element (TRE) luciferase reporter in MCF-7 cell lines; test: TEAD response element (TRE) reporter assay; format: cell-based; settings: Homo sapiens, MCF7; 0.2 μM compound, 24 hours, MCF-7 TEAD reporter cells, relative to vehicle (1% DMSO)
Experimental: MCF-7 cell lines injected with TEAD reporter genes expressing firefly luciferase upon activation of TEAD response element (TRE) were obtained from BPS bioscience (#60618). The TEAD reporter genes were injected to stable expression in the MCF-7 cell lines.
TEAD reporter genes expressing firefly luciferase upon activation of TEAD response element (TRE) were injected with TEAD reporter genes to ensure stable expression of the TEAD reporter genes. Here, the TEAD reporter genes expresses firefly luciferase upon activation of TEAD response element (TRE). The cells were cultured in a cell-only culture medium (BPS bioscience) to which 10 μg/mL insulin (Sigma) was added at 37° C. and 5% CO2.
In 24 hours after dispensing said cells into a 96-well plate, each of the compounds of the examples or a vehicle solvent (final 1% DMSO) was treated by being diluted with a serum-free culture medium so that the final concentration became 0.2 μM. In 24 hours after said treatment, a luciferase assay working solution (ONE-Step Luciferase assay reagent; BPS bioscience) containing a luciferase substrate was treated in each well at 100 μL, and then left in a shaker for 15 minutes to be well mixed. Then, a degree of luminescence generated by luciferase expressed according to TEAD activation was measured by a microplate reader (TECAN). A relative activity of luciferase […], and the results are shown in table 8 below.

[2] = molecular target: T1, recombinant GST-TEAD1 proteins (209 to 426 a.a.) (Homo sapiens, UniProt P28347); test: Evaluation of palmitoylation of TEAD protein; format: biochemical; settings: 5 μM compound, 15 minutes preincubation, 3 μM alkyne palmitoyl-CoA 30 minutes, pH 6.4, vs DMSO control
T1 construct: recombinant GST-TEAD1 proteins (209 to 426 a.a.)
T1 sequence (P28347 209-426): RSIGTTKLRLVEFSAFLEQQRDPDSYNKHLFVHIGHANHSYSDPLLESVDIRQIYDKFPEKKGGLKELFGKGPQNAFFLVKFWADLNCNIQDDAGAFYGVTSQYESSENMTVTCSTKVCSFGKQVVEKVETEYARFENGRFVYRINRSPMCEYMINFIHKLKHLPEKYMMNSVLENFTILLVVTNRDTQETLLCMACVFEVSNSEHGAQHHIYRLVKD
Experimental: Each compound corresponding to a concentration of 5 μM was added to recombinant GST-TEAD1 proteins (209 to 426 a.a.) and cultured for 15 minutes. For an autopalmitoylation reaction of proteins after culturing, 3 μM alkyne palmitoyl-CoA (Cayman chemical) and 50 mM MES buffer (pH 6.4) were added and cultured for 30 minutes, after which 1% of sodium dodecyl sulfate (SDS) was added to stop the reaction. After that, biotinylation was performed through a CLICK (Click chemistry tools) reaction, and then a protein solution was concentrated to prepare a sample.
Analysis of the sample was performed using SDS-PAGE and streptavidin HRP (Thermo scientific). The resulting values were quantified using an Image J (NIH). For the intensity of the band obtained from Streptavidin blot, a palmitoylation inhibitory activity was analyzed based on the control group (DMSO). The normalization of each sample was performed using an anti-GST (91G1) (cell signaling) antibody.

Structure (SMILES)	inhibition at 5 µM [2]	inhibition at 0.2 µM [1]
C=CC(=O)Nc1cnc2c(ccn2-c2ccc(C(F)(F)F)cc2)c1 [Compound 36, N-(1-(4-(trifluoromethyl)phenyl)-1H-pyrrolo[2,3-b]pyridin-5-yl)acrylamide]	> 80%	> 50%
C=CC(=O)Nc1cnc2c(c1)c(C)cn2-c1ccc(C2CCCCC2)cc1 [Compound 37, N-(1-(4-cyclohexylphenyl)-3-methyl-1H-pyrrolo[2,3-b]pyridin-5-yl)acrylamide]	> 80%	< 30%
C=CC(=O)Nc1ccc2c(Br)nn(Cc3ccc(C(F)(F)F)cc3)c2c1 [Compound 38, N-(3-bromo-1-(4-(trifluoromethyl)benzyl)-1H-indazol-6-yl)acrylamide]	> 80%	30 to 50%
C=CC(=O)Nc1ccc2c(c1)CCN2c1ccc(C(F)(F)F)cc1 [Compound 39, N-(1-(4-(trifluoromethyl)phenyl)indolin-5-yl)acrylamide]	40 to 80%	30 to 50%
C=CC(=O)Nc1cnc2c(n1)c(C)cn2-c1ccc(C(F)(F)F)cc1 [Compound 41, N-(7-methyl-5-(4-(trifluoromethyl)phenyl)-5H-pyrrolo[2,3-b]pyrazin-2-yl)acrylamide]	40 to 80%	> 50%
C=CC(=O)Nc1cnc2c(c1)c(C)cn2Cc1ccc(C(C)(C)C)cc1 [Compound 44, N-(1-(4-(tert-butyl)benzyl)-3-methyl-1H-pyrrolo[2,3-b]pyridin-5-yl)acrylamide]	40 to 80%	< 30%
C=CC(=O)Nc1cnc2c(c1)c(C)cn2Cc1ccc(OC(F)(F)F)cc1 [Compound 45, N-(3-methyl-1-(4-(trifluoromethoxy)benzyl)-1H-pyrrolo[2,3-b]pyridin-5-yl)acrylamide]	40 to 80%	> 50%
C=CC(=O)Nc1cnc2c(ccn2-c2ccc(C(F)(F)F)cc2)n1 [Compound 46, N-(5-(4-(trifluoromethyl)phenyl)-5H-pyrrolo[2,3-b]pyrazin-2-yl)acrylamide]	40 to 80%	< 30%
C=CC(=O)Nc1cnc2c(c1)c(C)cn2-c1ccc(C(C)C)cc1 [Compound 47, N-(1-(4-isopropylphenyl)-3-methyl-1H-pyrrolo[2,3-b]pyridin-5-yl)acrylamide]	> 80%	30 to 50%

The next lines start with results.

inhibition at 5 µM [2]	Structure (SMILES)	inhibition at 0.2 µM [1]
40 to 80%	C=CC(=O)Nc1cnc2c(c1)c(C)nn2CCC(C)C [Compound 48, N-(1-isopentyl-3-methyl-1H-pyrazolo[3,4-b]pyridin-5-yl)acrylamide]	> 50%
40 to 80%	C=CC(=O)Nc1cnc2c(c1)c(C)nn2Cc1ccc(OC(F)(F)F)cc1 [Compound 49, N-(3-methyl-1-(4-(trifluoromethoxy)benzyl)-1H-pyrazolo[3,4-b]pyridin-5-yl)acrylamide]	< 30%
> 80%	C=CC(=O)Nc1cnc2c(c1)c(C)nn2-c1ccc(C(C)C)cc1 [Compound 51, N-(1-(4-isopropylphenyl)-3-methyl-1H-pyrazolo[3,4-b]pyridin-5-yl)acrylamide]	< 30%
40 to 80%	C=CC(=O)Nc1cnc2c(c1)c(C)nn2-c1cccc(C(F)(F)F)c1 [Compound 52, N-(3-methyl-1-(3-(trifluoromethyl)phenyl)-1H-pyrazolo[3,4-b]pyridin-5-yl)acrylamide]	> 50%
< 40%	C=CC(=O)Nc1cnc2c(c1)c(C)cn2Cc1ccc(C(F)(F)F)c(OC)c1 [Compound 53, N-(1-(3-methoxy-4-(trifluoromethyl)benzyl)-3-methyl-1H-pyrrolo[2,3-b]pyridin-5-yl)acrylamide]	> 50%
40 to 80%	C=CC(=O)Nc1cnc2c(c1)c(C)cn2Cc1cccc(C(F)(F)F)c1 [Compound 55, N-(3-methyl-1-(3-(trifluoromethyl)benzyl)-1H-pyrrolo[2,3-b]pyridin-5-yl)acrylamide]	> 50%

From patent US20250171451A1, “NOVEL HETEROCYCLIC COMPOUND AND PHARMACEUTICAL COMPOSITION COMPRISING SAME” (Samjin Pharmaceutical Co., Ltd., priority 2022, published 2025)
